These results are taken from patent US5370861A, “Iodinated esters contrast medium and use” (Nycomed Imaging AS, priority 1989, dated 1994).

One data set has as its system liver. Put plainly: CT studies in rabbit: contrast enhancement in the liver. The following applies: dynamic CT, iohexol 350 mg I/ml. The format is in vivo, rabbits. As to the method:
Contrast enhancement in the liver was investigated in rabbits. Anaesthetized animals were placed in a Siemens CT scanner and injected with particles of Pharmaceutical Formulation 4 in the marginal ear vein. Particle concentration was 28 mg/ml. A particle dose corresponding to 75 mg I/kg gave an increase in liver contrast from a basal level of […] to about 120 HU. Thus, the contrast enhancement on this dose level was about 35-40 HU. […] The average iodine content in these livers was 1.1 mg I/g liver. […] About 8 times more iodine had to be injected in these animals to achieve the same contrast enhancement of the liver. With this vascular contrast medium, the enhancement was transient, lasting for one or two minutes.

A further data set relates to hepatocytes. As to conditions: in vivo, iv; cited from earlier work.
Data set [1] in a line: In vitro biodegradation: hydrolysis with release of Isopaque in Seronorm, pH 7.4, 37° C (HPLC). The format is in vitro ADME. The following applies: seronorm serum, Seronorm (0.5 mg/ml), read-out: substance hydrolysed after 6 hours in Seronorm. The procedure: The following Examples are given by way of illustration only. Seronorm is a test serum available from Nycomed AS, Oslo, Norway.
(§1) The powdered product of Example 1 was suspended in Seronorm (0.5 mgml) at pH 7.4 and agitated at 37° C. As a control the experiment was also performed in phosphate buffered saline (PBS) at pH 7.4. At different time points samples were taken from the supernatant after centrifugation of the vial (4000 rpm, 10 rain). The release of Isopaque (5-(N-acetylamino)-3-(N-acetyl-N-methylamino)-2,4,6-triiodobenzene carboxylic acid) was analysed by HPLC. After 6 hours 100% of the substance was hydrolysed. In PBS only 1.1% was hydrolysed during the same period.

Data set [2] in a line: In vitro biodegradation control: hydrolysis in phosphate buffered saline (PBS), pH 7.4. The format is physicochemical. The following applies: read-out: substance hydrolysed in PBS. As to the method:
as §1

Take `CC(=O)N(CC(O)CO)c1c(I)c(C(=O)NCC(O)CO)c(I)c(C(=O)NCC(O)CO)c1I` (stereo not drawn) [iohexol]: in the data set on liver, the duration of enhancement result is on record as “one or two”; the “iodine to be injected to achieve the same contrast enhancement of the liver, relative to Pharmaceutical Formulation 4” value is on record as “About 8 times”; the “nature of enhancement with vascular contrast medium” value is recorded as “transient”.
For the molecule `CCOC(=O)c1c(I)cc(I)c(NC(=O)CCCCC(=O)Nc2c(I)cc(I)c(C(=O)OCC)c2I)c1I` [ethyl ester of iodipamide, ethyl ester of the water soluble X-ray contrast agent, iodipamide], the “lipid vacuoles in the hepatocytes” value in the data set on hepatocytes is listed as “increase in lipid vacuoles in the hepatocytes”.
With `CCOC(=O)OC(C)OC(=O)c1c(I)c(NC(C)=O)c(I)c(N(C)C(C)=O)c1I` (stereo not drawn) [Example 1, 1-(Ethyloxycarbonyloxy)ethyl 5-(N-acetylamino)-3-(N-acetyl-N-methylamino)-2,4,6-triiodobenzenecarboxylate], in data set [1], the metabolised at 6 h was found to be 100%. The degraded at 6 h in data set [2] worked out at 1.1%.
